Values quoted from earlier work as cited in patent publication US20260232589A1, “NANOPREPARATIONS LOADED WITH TRABECTEDIN AND PACLITAXEL” (SHANGHAI JIAO TONG UNIVERSITY, priority 2023, published 2026).

Tested on: Ly6Chi monocytes
Details: literature reports, after trabectedin administration

COc1cc2c(cc1O)CCN[C@]21CS[C@@H]2c3c(OC(C)=O)c(C)c4c(c3[C@H](COC1=O)N1[C@@H]2[C@H]2c3c(cc(C)c(OC)c3O)C[C@@H]([C@@H]1O)N2C)OCO4 [trabectedin]
number of Ly6Chi monocytes in the peripheral blood of mice: decreases
